In patent publication US20090186844A1, “SiRNA DELIVERY INTO MAMMALIAN NERVE CELLS” (priority 2003, published 2009):
Structures can show the parent of a compound that is named as a salt.

What was measured:
phrenic motor output = experiment: Phrenic activity following intrathecal BDNF injections; type: in vivo, rat; conditions: 90 min post-injection
Method: (§1) Surgical procedures have been described elsewhere (7). Rats were anesthetized with isoflurane (2.5% in 50% O2), vagotomized and pump-ventilated (Harvard Apparatus, South Natick, Mass.). The phrenic nerve was dissected, cut distally and desheathed. A laminectomy was performed over C2, and a silicone catheter (2 French, Access Technologies; Skokie, Ill.) connected to a 50 μl glass syringe (Hamilton; Reno Nev.) was advanced through a small hole in the dura at C2, such that the tip of the catheter lay over C4-C5. Following surgery, rats were converted to urethane anesthesia (1.6 g/kg, i.v.) and were paralyzed with pancuronium bromide (2.5 mg/kg). Supplemental doses of urethane were given as necessary. […] End-tidal PCO2 was monitored using a flow-through capnograph (Novametrix, Wallingford, Conn.). […]
Respiratory-related activity was recorded in the phrenic nerve with a bipolar silver electrode. […] Phrenic activity was digitized, recorded and analyzed using the WINDAQ data acquisition system (DATAQ Instruments, Akron, Ohio).
An intrathecal catheter was placed and 10-13 μl solutions of BDNF (0.1 μg, n=5) or vehicle (artificial CSF+0.1% BSA; n=5) were injected. To determine if intrathecal BDNF injections unintentionally spread beyond the spinal cord to cranial motor pools, the hypoglossal nerve was also dissected, desheathed and recorded. […]

[1] = test system: phrenic long-term facilitation (pLTF); experiment: pLTF following intermittent hypoxia after intrathecal pretreatment; type: in vivo, rat; conditions: for effect on pLTF: one anesthetized rat each, intrathecal, 30 min prior to intermittent hypoxia, UO126 0.4 mg, KN62/KN93 2 mg
Method: The phrenic nerve was dissected, cut distally and desheathed. A laminectomy was performed over C2, and a silicone catheter (2 French, Access Technologies; Skokie, Ill.) connected to a 50 μl glass syringe (Hamilton; Reno Nev.) was advanced through a small hole in the dura at C2, such that the tip of the catheter lay over C4-C5. Following surgery, rats were converted to urethane anesthesia (1.6 g/kg, i.v.) and were paralyzed with pancuronium bromide (2.5 mg/kg). Supplemental doses of urethane were given as necessary. […] End-tidal PCO2 was monitored using a flow-through capnograph (Novametrix, Wallingford, Conn.). Periodically throughout the protocol, arterial blood was collected (0.3 ml) in a heparinized syringe to ensure that values remained constant (PaO2<45 mmHg in hypoxia, PaO2>120 mmHg in hyperoxia, PaCO2±1 mmHg from baseline value). Arterial PCO2 was corrected to the target range by adjusting ventilator frequency as necessary.
Ninety minutes after surgery, stable integrated phrenic discharge was established in hyperoxia (baseline; 50% O2, PaO2>120 mmHg), with CO2 added to the inspired gas so that PaCO2 was 2-3 mmHg above the CO2 apneic threshold (45 mmHg). In rats receiving intrathecal injections of vehicle or drug solutions, a bolus injection of 10-15 μl was given, and 30-35 min were allowed for drugs to penetrate the spinal cord prior to beginning protocols. Blood gases were measured before, during, and 15, 30 and 60 min post-intermittent hypoxia or hypercapnia, or at corresponding times in control rats (without hypoxia or hypercapnia).
Intrathecal injections of K252a were performed prior to intermittent hypoxia; K252a was prepared as described above. Intrathecal K252a (n=6) or vehicle (DMSO+artificial CSF; n=5) was delivered 30 min prior to intermittent hypoxia, and phrenic discharge was monitored continuously for 60 min post-intermittent hypoxia.

phrenic burst amplitude = type: in vivo, rat
Method: To determine if MAP kinase activation is sufficient to facilitate phrenic burst amplitude, one anesthetized rat was intrathecally injected with anisomycin ([…]; 20 mM), a protein synthesis inhibitor that also non-specifically activates MAP kinases.

[2] = test system: BDNF protein concentration in ventral C3-C5; experiment: Ventral C3-C5 BDNF protein concentration (ELISA) after intermittent hypoxia, intrathecal drug pretreatment; type: in vivo, rat; conditions: 60 min post-intermittent hypoxia, intrathecal methysergide 250 microgram/kg or emetine 1 μg/kg 30 min prior
Method: as §1
Ninety minutes after surgery, stable integrated phrenic discharge was established in hyperoxia (baseline; 50% O2, PaO2>120 mmHg), with CO2 added to the inspired gas so that PaCO2 was 2-3 mmHg above the CO2 apneic threshold (45 mmHg). […] Blood gases were measured before, during, and 15, 30 and 60 min post-intermittent hypoxia or hypercapnia, or at corresponding times in control rats (without hypoxia or hypercapnia). […]

phrenic LTF = experiment: pLTF following sustained hypoxia after protein phosphatase inhibition; type: in vivo, rat; conditions: okadaic acid 0.15 mg; 20 mM intrathecally to C4 30 min prior to sustained hypoxia (25 min)
Method: Air, O2 and/or N2 were mixed to achieve the desired pattern of inspired oxygen concentration. […] Control groups receiving similar surgery or treatments, but not receiving hypoxia, […].
Accordingly, in one anesthetized rat, […] okadaic acid (0.15 mg; 20 mM), a protein phosphatase 1/2A (PP1 and PP2A) inhibitor, was delivered intrathecally to C4 30 min prior to sustained hypoxia (25 min). […] This finding has been successfully repeated in three additional rats.

TrkB receptor (rat) = TrkB receptor (rat) (UniProt Q63604); experiment: cell-based or functional assay
[3] = test system: hypoglossal nerve activity; experiment: Hypoglossal nerve activity following intrathecal BDNF injections; type: in vivo, rat; conditions: intrathecal BDNF 0.1 μg; 90 min post-injection
Method: An intrathecal catheter was placed and 10-13 μl solutions of BDNF (0.1 μg, n=5) or vehicle (artificial CSF+0.1% BSA; n=5) were injected. To determine if intrathecal BDNF injections unintentionally spread beyond the spinal cord to cranial motor pools, the hypoglossal nerve was also dissected, desheathed and recorded. […] In another group of rats, two intrathecal catheters were placed over C4, and a bolus injection of the tyrosine kinase inhibitor K252a was given 10 min prior to BDNF injection (BDNF+K252a; BDNF=0.1 μg; K252a=0.15 microgram, n=3). Recombinant human BDNF (Promega Corporation, Madison, Wis.) was dissolved in artificial CSF+0.1% bovine serum albumin (BSA). K252a (Calbiochem; San Diego, Calif.) was initially dissolved in dimethylsulfoxide (DMSO; 100 μg K252a in 1.5 ml DMSO) and frozen in 200 μl aliquots. Prior to experimentation, 0.8 ml artificial CSF was added to a 200 μl aliquot of K252a/DMSO solution, of which 10-15 μl was delivered intrathecally (final concentration of K252a=0.13-0.2 μg; 28 μM). Vehicle delivery was as described above (DMSO+artificial CSF), except K252a was not added. At 30, 60 and 90 min post-injection, arterial blood gases were analyzed to ensure that PaO2 and PaCO2 levels were similar to pre-injection values.

TrkB receptor (rat), sequence (Q63604 32-821): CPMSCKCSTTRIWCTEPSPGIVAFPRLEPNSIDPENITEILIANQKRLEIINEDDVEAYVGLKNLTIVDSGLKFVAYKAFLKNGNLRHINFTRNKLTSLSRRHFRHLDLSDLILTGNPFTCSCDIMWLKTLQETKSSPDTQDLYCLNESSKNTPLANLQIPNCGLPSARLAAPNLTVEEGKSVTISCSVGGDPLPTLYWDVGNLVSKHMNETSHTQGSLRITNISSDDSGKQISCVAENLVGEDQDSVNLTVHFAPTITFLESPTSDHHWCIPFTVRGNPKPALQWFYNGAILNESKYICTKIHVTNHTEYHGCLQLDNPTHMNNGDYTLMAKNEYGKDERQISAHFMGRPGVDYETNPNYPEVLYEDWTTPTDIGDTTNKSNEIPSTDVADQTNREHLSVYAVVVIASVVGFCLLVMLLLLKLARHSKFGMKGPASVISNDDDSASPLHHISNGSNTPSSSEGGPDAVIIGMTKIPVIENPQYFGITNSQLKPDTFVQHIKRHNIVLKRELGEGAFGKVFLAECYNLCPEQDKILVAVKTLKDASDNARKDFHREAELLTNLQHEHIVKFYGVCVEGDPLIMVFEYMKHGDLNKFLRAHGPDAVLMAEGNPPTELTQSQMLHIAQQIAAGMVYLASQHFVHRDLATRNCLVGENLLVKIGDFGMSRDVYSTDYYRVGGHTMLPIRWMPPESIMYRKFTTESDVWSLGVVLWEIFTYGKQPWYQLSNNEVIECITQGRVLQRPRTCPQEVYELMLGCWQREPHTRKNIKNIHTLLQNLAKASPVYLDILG

Question: With `COC(=O)[C@@]1(O)C[C@H]2O[C@]1(C)n1c3ccccc3c3c4c(c5c6ccccc6n2c5c31)C(=O)NC4` [K252a] as the molecule, how does the “BDNF-induced phrenic facilitation after K252a pre-treatment, change from baseline” value (phrenic motor output; intrathecal K252a 10 min prior to BDNF 0.1 μg) read?
Answer: 9±10%

Question: What about the “phrenic burst amplitude increase from baseline (pLTF)” value ([1]; 60 min post-intermittent hypoxia, intrathecal K252a 0.13-0.2 μg 30 min prior) of the same molecule?
Answer: 25±6%

Question: For `CN([C@@H](Cc1ccc(OS(=O)(=O)c2cccc3cnccc23)cc1)C(=O)N1CCN(c2ccccc2)CC1)S(=O)(=O)c1cccc2cnccc12` [KN62], which “effect on pLTF” value [1] is on record?
Answer: did not block pLTF

Question: With `COc1ccc(S(=O)(=O)N(CCO)c2ccccc2CN(C)C/C=C/c2ccc(Cl)cc2)cc1` [KN93] as the molecule, how does the “effect on pLTF” value [1] read?
Answer: did not block pLTF

Question: Which “effect of pretreatment on anisomycin-induced increase in phrenic amplitude” value (phrenic burst amplitude; UO126 0.4 mg, 100 mM pretreatment, n=1) does the source give for `N#CC(=C(/N)Sc1ccccc1N)/C(C#N)=C(/N)Sc1ccccc1N` [UO126] here?
Answer: prevented the effect

Question: And the “effect on pLTF” value [1]?
Answer: blocked pLTF

Question: How did the “phrenic burst amplitude increase above pre-injection levels” value (phrenic burst amplitude; one anesthetized rat, intrathecal anisomycin 100 mg, 20 mM, thirty min post-injection) turn out when `COc1ccc(C[C@H]2NC[C@H](O)[C@H]2OC(C)=O)cc1` [anisomycin] was run?
Answer: 60%

Question: With `CC[C@H]1CN2CCc3cc(OC)c(OC)cc3[C@@H]2C[C@@H]1C[C@H]1NCCc2cc(OC)c(OC)cc21` [emetine] as the molecule, how does the “change in ventral cervical BDNF concentration from corresponding drug control” value [2] read?
Answer: 19±11%

Question: With `CC[C@@H](CO)NC(=O)[C@@H]1C=C2c3cccc4c3c(cn4C)C[C@H]2N(C)C1` [methysergide, methysergide maleate] as the molecule, how does the “change in ventral cervical BDNF concentration from corresponding drug control” value [2] read?
Answer: −10±8%

Question: Which “pLTF 60 min following sustained hypoxia” value (phrenic LTF) does the source give for `C=C1[C@@H](O)[C@@H]2O[C@]3(CC[C@H](/C=C/[C@@H](C)[C@@H]4CC(C)=C[C@@]5(O[C@H](C[C@@](C)(O)C(=O)O)CC[C@H]5O)O4)O3)CC[C@H]2O[C@@H]1[C@@H](O)C[C@H](C)[C@H]1O[C@@]2(CCCCO2)CC[C@H]1C` [okadaic acid] here?
Answer: a modest pLTF was apparent

Question: “Recombinant human BDNF (Promega Corporation) (from UniProt P23560 129-247) (ligand)” was tested. Which integrated phrenic discharge (percent change from baseline) 90 min after intrathecal BDNF injection in anesthetized rats (% above baseline) (TrkB receptor (rat)) did it give?
Answer: 125

B1: BDNF: Recombinant human BDNF (Promega), brain-derived neurotrophic factor (protein)
chain: HSDPARRGELSVCDSISEWVTAADKKTAVDMSGGTVTVLEKVPVSKGQLKQYFYETKCNPMGYTKEGCRGIDKRHWNSQCRTTQSYVRALTMDSKKRIGWRFIRIDTSCVCTLTIKRGR
Question: B1 was tested. Which “hypoglossal nerve activity, change from baseline” value [3] did it give?
Answer: 30±17%

Question: And the “integrated phrenic discharge, change above baseline” value (phrenic motor output; intrathecal BDNF 0.1 μg)?
Answer: 125±25%
